≈ marks a conversion by molar mass, not a printed value.
What was measured:
[1] = Minimum inhibitory concentration against Trichophyton rubrum B68183 by microdilution method; assay type: functional
[2] = Minimum inhibitory concentration against Microsporum canis B68128 by microdilution method; assay type: functional
Cryptococcus neoformans = assay: Minimum inhibitory concentration against Cryptococcus neoformans B66663 by microdilution method; assay type: functional
Candida parapsilosis = assay: Minimum inhibitory concentration against Candida B66126 parapsilosis by microdilution method; assay type: functional; conditions: Lodderomyces parapsilosis
Aspergillus fumigatus = assay: Minimum inhibitory concentration against Aspergillus fumigatus B42928 by microdilution method; assay type: functional
[3] = Minimum inhibitory concentration against Sporothrix schenckii B64284 by microdilution method; assay type: functional
[4] = Minimum inhibitory concentration against Trichophyton mentagrophytes B70554 by microdilution method; assay type: functional; conditions: Trichophyton benhamiae
[5] = Bioavailability in plasma of Microsporum canis infected guinea pig after […] administration of 2 mg/kg dose; assay type: ADME, organism-based, Cavia porcellus; conditions: read-out: Activity

| Structure (SMILES) | MIC [1] | MIC [2] | MIC (Cryptococcus neoformans) | MIC (Candida parapsilosis) | MIC (Aspergillus fumigatus) | MIC [3] | MIC [4] | bioavailability [5] |
| --- | --- | --- | --- | --- | --- | --- | --- | --- |
| CCc1ccc(C2NCc3c(F)cccc3-n3cccc32)cc1 (centres undefined) | 0.32 µM (≈ 0.098 µg/mL) | 3.2 µM (≈ 0.98 µg/mL) | 100 µM (≈ 30.6 µg/mL) | 10 µM (≈ 3.06 µg/mL) | 10 µM (≈ 3.06 µg/mL) | 100 µM (≈ 30.6 µg/mL) | 1 µM (≈ 0.306 µg/mL) | – |
| CCc1ccc(C2NCc3c(Cl)cccc3-n3cccc32)cc1 (centres undefined) | 0.03 µM (≈ 0.00969 µg/mL) | 0.32 µM (≈ 0.103 µg/mL) | 100 µM (≈ 32.3 µg/mL) | 1 µM (≈ 0.323 µg/mL) | 3.2 µM (≈ 1.03 µg/mL) | 100 µM (≈ 32.3 µg/mL) | 0.1 µM (≈ 0.0323 µg/mL) | – |
| CCc1ccc(C2=NCc3ccc(Cl)cc3-n3cccc32)cc1 | 0.065 µM (≈ 0.0209 µg/mL) | 0.32 µM (≈ 0.103 µg/mL) | 1 µM (≈ 0.321 µg/mL) | 1 µM (≈ 0.321 µg/mL) | 0.32 µM (≈ 0.103 µg/mL) | 6.6 µM (≈ 2.12 µg/mL) | 0.1 µM (≈ 0.0321 µg/mL) | – |
| CCc1ccc([C@H]2NCc3c(Cl)cccc3-n3cccc32)cc1 | 0.03 µM (≈ 0.00969 µg/mL) | 0.32 µM (≈ 0.103 µg/mL) | 100 µM (≈ 32.3 µg/mL) | 0.32 µM (≈ 0.103 µg/mL) | 1 µM (≈ 0.323 µg/mL) | 100 µM (≈ 32.3 µg/mL) | 0.01 µM (≈ 0.00323 µg/mL) | < 5% |
| CCc1ccc(C2NCc3c(C)cccc3-n3cccc32)cc1 (centres undefined) | 0.21 µM (≈ 0.0635 µg/mL) | 2.1 µM (≈ 0.635 µg/mL) | 100 µM (≈ 30.2 µg/mL) | 55 µM (≈ 16.6 µg/mL) | 100 µM (≈ 30.2 µg/mL) | 100 µM (≈ 30.2 µg/mL) | 1 µM (≈ 0.302 µg/mL) | – |
| Cc1ccc(C2NCc3c(Cl)cccc3-n3cccc32)cc1 (centres undefined) | 0.1 µM (≈ 0.0309 µg/mL) | 2.1 µM (≈ 0.649 µg/mL) | 100 µM (≈ 30.9 µg/mL) | 100 µM (≈ 30.9 µg/mL) | 100 µM (≈ 30.9 µg/mL) | 100 µM (≈ 30.9 µg/mL) | 2.1 µM (≈ 0.649 µg/mL) | – |
| CCc1ccc(C2c3cccn3-c3cccc(Cl)c3CN2C)cc1 (centres undefined) | 51.6 µM (≈ 17.4 µg/mL) | 100 µM (≈ 33.7 µg/mL) | 100 µM (≈ 33.7 µg/mL) | 100 µM (≈ 33.7 µg/mL) | 100 µM (≈ 33.7 µg/mL) | 100 µM (≈ 33.7 µg/mL) | 55 µM (≈ 18.5 µg/mL) | – |
| Clc1cccc2c1CNC(c1ccccc1)c1cccn1-2 (centres undefined) | 0.32 µM (≈ 0.0943 µg/mL) | 100 µM (≈ 29.5 µg/mL) | 100 µM (≈ 29.5 µg/mL) | 100 µM (≈ 29.5 µg/mL) | 100 µM (≈ 29.5 µg/mL) | 100 µM (≈ 29.5 µg/mL) | 100 µM (≈ 29.5 µg/mL) | – |
| CCc1ccc(C2NCc3cccc(Cl)c3-n3cccc32)cc1 (centres undefined) | 1 µM (≈ 0.323 µg/mL) | 3.2 µM (≈ 1.03 µg/mL) | 100 µM (≈ 32.3 µg/mL) | 100 µM (≈ 32.3 µg/mL) | 100 µM (≈ 32.3 µg/mL) | 100 µM (≈ 32.3 µg/mL) | 3.2 µM (≈ 1.03 µg/mL) | – |
| CCc1ccccc1C1NCc2c(Cl)cccc2-n2cccc21 (centres undefined) | 10 µM (≈ 3.23 µg/mL) | 100 µM (≈ 32.3 µg/mL) | 100 µM (≈ 32.3 µg/mL) | 100 µM (≈ 32.3 µg/mL) | 100 µM (≈ 32.3 µg/mL) | 100 µM (≈ 32.3 µg/mL) | 100 µM (≈ 32.3 µg/mL) | – |
| CC(C)(C)c1ccc(C2NCc3c(Cl)cccc3-n3cccc32)cc1 (centres undefined) | 1 µM (≈ 0.351 µg/mL) | 0.66 µM (≈ 0.232 µg/mL) | 100 µM (≈ 35.1 µg/mL) | 55 µM (≈ 19.3 µg/mL) | 100 µM (≈ 35.1 µg/mL) | 55 µM (≈ 19.3 µg/mL) | 1 µM (≈ 0.351 µg/mL) | – |
| CCc1ccc(C2NCc3c(OC)cccc3-n3cccc32)cc1 (centres undefined) | 3.2 µM (≈ 1.02 µg/mL) | 10 µM (≈ 3.18 µg/mL) | 100 µM (≈ 31.8 µg/mL) | 100 µM (≈ 31.8 µg/mL) | 100 µM (≈ 31.8 µg/mL) | 100 µM (≈ 31.8 µg/mL) | 10 µM (≈ 3.18 µg/mL) | – |
| CCc1ccc(C2=NCc3ccccc3-n3cccc32)cc1 | 0.065 µM (≈ 0.0186 µg/mL) | 0.32 µM (≈ 0.0916 µg/mL) | 100 µM (≈ 28.6 µg/mL) | 0.32 µM (≈ 0.0916 µg/mL) | 1 µM (≈ 0.286 µg/mL) | 100 µM (≈ 28.6 µg/mL) | 0.32 µM (≈ 0.0916 µg/mL) | – |
| CCc1ccc(C2NCc3ccc(Cl)cc3-n3cccc32)cc1 (centres undefined) | 0.1 µM (≈ 0.0323 µg/mL) | 1 µM (≈ 0.323 µg/mL) | 100 µM (≈ 32.3 µg/mL) | 100 µM (≈ 32.3 µg/mL) | 100 µM (≈ 32.3 µg/mL) | 100 µM (≈ 32.3 µg/mL) | 1 µM (≈ 0.323 µg/mL) | – |
| CCc1ccc([C@@H]2NCc3c(Cl)cccc3-n3cccc32)cc1 | 0.32 µM (≈ 0.103 µg/mL) | 0.32 µM (≈ 0.103 µg/mL) | 100 µM (≈ 32.3 µg/mL) | 100 µM (≈ 32.3 µg/mL) | 55 µM (≈ 17.8 µg/mL) | 100 µM (≈ 32.3 µg/mL) | 1 µM (≈ 0.323 µg/mL) | – |
| Clc1cccc2c1CNC(c1ccc(Br)cc1)c1cccn1-2 (centres undefined) | 0.21 µM (≈ 0.0785 µg/mL) | 0.32 µM (≈ 0.12 µg/mL) | 100 µM (≈ 37.4 µg/mL) | 100 µM (≈ 37.4 µg/mL) | 10 µM (≈ 3.74 µg/mL) | 100 µM (≈ 37.4 µg/mL) | 0.21 µM (≈ 0.0785 µg/mL) | – |
| CCc1ccc(C2NCc3c(SC)cccc3-n3cccc32)cc1 (centres undefined) | 0.32 µM (≈ 0.107 µg/mL) | 3.2 µM (≈ 1.07 µg/mL) | 100 µM (≈ 33.4 µg/mL) | 100 µM (≈ 33.4 µg/mL) | 100 µM (≈ 33.4 µg/mL) | 100 µM (≈ 33.4 µg/mL) | 3.2 µM (≈ 1.07 µg/mL) | – |
| CCCc1ccc(C2NCc3c(Cl)cccc3-n3cccc32)cc1 (centres undefined) | 0.32 µM (≈ 0.108 µg/mL) | 0.66 µM (≈ 0.222 µg/mL) | 100 µM (≈ 33.7 µg/mL) | 6.6 µM (≈ 2.22 µg/mL) | 100 µM (≈ 33.7 µg/mL) | 100 µM (≈ 33.7 µg/mL) | 0.66 µM (≈ 0.222 µg/mL) | – |
| CCc1ccc(C2NCc3cc(Cl)ccc3-n3cccc32)cc1 (centres undefined) | 3.2 µM (≈ 1.03 µg/mL) | 100 µM (≈ 32.3 µg/mL) | 100 µM (≈ 32.3 µg/mL) | 100 µM (≈ 32.3 µg/mL) | 100 µM (≈ 32.3 µg/mL) | 100 | 51.6 µM (≈ 16.7 µg/mL) | – |
| CCc1ccc(C2NCc3ccccc3-n3cccc32)cc1 (centres undefined) | 1 µM (≈ 0.288 µg/mL) | 100 µM (≈ 28.8 µg/mL) | 100 µM (≈ 28.8 µg/mL) | 100 µM (≈ 28.8 µg/mL) | 1 µM (≈ 0.288 µg/mL) | 100 µM (≈ 28.8 µg/mL) | 3.2 µM (≈ 0.923 µg/mL) | – |
| CCc1ccc(C2=NCc3c(Cl)cccc3-n3cccc32)cc1 | 0.01 µM (≈ 0.00321 µg/mL) | 0.03 µM (≈ 0.00962 µg/mL) | 100 µM (≈ 32.1 µg/mL) | 0.32 µM (≈ 0.103 µg/mL) | 0.32 µM (≈ 0.103 µg/mL) | 100 µM (≈ 32.1 µg/mL) | 0.03 µM (≈ 0.00962 µg/mL) | – |
| CCc1cccc(C2NCc3c(Cl)cccc3-n3cccc32)c1 (centres undefined) | 0.1 µM (≈ 0.0323 µg/mL) | 1 µM (≈ 0.323 µg/mL) | 100 µM (≈ 32.3 µg/mL) | 10 µM (≈ 3.23 µg/mL) | 10 µM (≈ 3.23 µg/mL) | 100 µM (≈ 32.3 µg/mL) | 1 µM (≈ 0.323 µg/mL) | – |
| Clc1ccc(C2NCc3c(Cl)cccc3-n3cccc32)cc1 (centres undefined) | 0.32 µM (≈ 0.105 µg/mL) | 0.66 µM (≈ 0.217 µg/mL) | 100 µM (≈ 32.9 µg/mL) | 100 µM (≈ 32.9 µg/mL) | 51.6 µM (≈ 17 µg/mL) | 100 µM (≈ 32.9 µg/mL) | 0.66 µM (≈ 0.217 µg/mL) | – |
| CN(C/C=C/C#CC(C)(C)C)Cc1cccc2ccccc12 [TERBINAFINE] | 0.003 µM (≈ 0.000874 µg/mL) | 0.03 µM (≈ 0.00874 µg/mL) | 1 µM (≈ 0.291 µg/mL) | 0.32 µM (≈ 0.0933 µg/mL) | 0.32 µM (≈ 0.0933 µg/mL) | 0.32 µM (≈ 0.0933 µg/mL) | 0.01 µM (≈ 0.00291 µg/mL) | – |
